Like-named read-outs stand apart in the source and are kept apart here.
Legend:
[1] = system: nontumorigenic neonatal foreskin fibroblast (NFF) cell line
[2] = system: Trichomonas vaginalis G3 trophozoites; settings: for T.vaginalis_Absorbance_Rep1 / T.vaginalis_Absorbance_Rep2: HTS, parasite screen at 1 µg/mL; for T.vaginalis_Absorbance_Rep1: replicate 1, raw absorbance; for T.vaginalis_Absorbance_Rep2: replicate 2, raw absorbance
[3] = system: Trichomonas vaginalis G3 trophozoites; assay: microbe, parasite or virus in culture; settings: 48 h
[4] = read-out: T.vaginalis_%inb_Rep1
[5] = read-out: T.vaginalis_%inb_Rep2
[6] = NFF fibroblasts, single concentration 5 µg/mL
[7] = NFF fibroblast screen at 5 µg/mL, A = active, I = inactive

CC[C@H](C)[C@H]1C(=O)O[C@H](C(C)C)C(=O)N(C)[C@@H](C(C)C)C(=O)O[C@H](C(C)C)C(=O)N(C)[C@@H](C(C)C)C(=O)O[C@H](C(C)C)C(=O)N1C [Enniatin B1]
NFF_Activity ([1]; NFF_NS1 screen at 5 µg/mL): I (otherwise these were reported as inactive (I))
T.vaginalis_Absorbance_Rep1 [2]: 0.967
T.vaginalis_Absorbance_Rep2 [2]: 0.828
inhibition of growth at 1 µg/mL [3, 4]: 13.9%
inhibition of growth at 1 µg/mL [3, 5]: 15%

CC(C)[C@H]1C(=O)O[C@H](C(C)C)C(=O)N(C)[C@@H](C(C)C)C(=O)O[C@H](C(C)C)C(=O)N(C)[C@@H](C(C)C)C(=O)O[C@H](C(C)C)C(=O)N1C [Enniatin B]
NFF_Activity ([1]; NFF_NS1 screen at 5 µg/mL): I (otherwise these were reported as inactive (I))
T.vaginalis_Absorbance_Rep1 [2]: 0.992
T.vaginalis_Absorbance_Rep2 [2]: 0.695
inhibition of growth at 1 µg/mL [3, 4]: 15.2%
inhibition of growth at 1 µg/mL [3, 5]: 5.42%

C=CC(C)(C)c1[nH]c2c(CC=C(C)C)cc(CC=C(C)C)cc2c1C[C@@H]1NC(=O)[C@H](C)NC1=O [Echinulin]
NFF_Activity ([1]; NFF_NS1 screen at 5 µg/mL): I (otherwise these were reported as inactive (I))
T.vaginalis_Absorbance_Rep1 [2]: 1.001
T.vaginalis_Absorbance_Rep2 [2]: 0.85
inhibition of growth at 1 µg/mL [3, 4]: 15.7%
inhibition of growth at 1 µg/mL [3, 5]: 16.6%

COc1cc(C)c(C(=O)Oc2cc(C)c(C(=O)O)c(O)c2C)c(OC)c1C [Diffractaic acid]
NFF_Activity ([1]; NFF_NS1 screen at 5 µg/mL): I (otherwise these were reported as inactive (I))
T.vaginalis_Absorbance_Rep1 [2]: 0.965
T.vaginalis_Absorbance_Rep2 [2]: 0.79
inhibition of growth at 1 µg/mL [3, 4]: 13.8%
inhibition of growth at 1 µg/mL [3, 5]: 12.3%

C/C(=C\c1csc(C)n1)[C@@H]1C[C@@H]2O[C@]2(C)CCC[C@H](C)[C@H](O)[C@@H](C)C(=O)C(C)(C)[C@@H](O)CC(=O)O1 [epothilone B, reference compound]
NFF_Activity ([1]; NFF_NS1 screen at 5 µg/mL): I (otherwise these were reported as inactive (I))
T.vaginalis_Absorbance_Rep1 [2]: 2.179
T.vaginalis_Absorbance_Rep2 [2]: 1.684
selectivity: anti-trichomonal vs anti-tumour (NS-1) and cytotoxic (NFF) activity ([2]; single concentration screens of the same library, NS-1/NFF active if >25% inhibition): selective for T. vaginalis
inhibition of growth at 1 µg/mL [3, 4]: 74.9%
inhibition of growth at 1 µg/mL [3, 5]: 67.3%

C[C@@](O)(/C=C/[C@H]1CC=CC(=O)O1)[C@@H](C[C@@H](O)\C=C/C=C\C=C\CO)OP(=O)(O)O [Fostriecin]
NFF_Activity ([1]; NFF_NS1 screen at 5 µg/mL): I (otherwise these were reported as inactive (I))
T.vaginalis_Absorbance_Rep1 [2]: 0.964
T.vaginalis_Absorbance_Rep2 [2]: 0.811
inhibition of growth at 1 µg/mL [3, 4]: 13.7%
inhibition of growth at 1 µg/mL [3, 5]: 13.8%

CO[C@H]1C[C@@H]2CC[C@@H](C)[C@@](O)(O2)C(=O)C(=O)N2CCCC[C@H]2C(=O)O[C@H]([C@H](C)C[C@@H]2CC[C@@H](OCCO)[C@H](OC)C2)CC(=O)[C@H](C)/C=C(\C)[C@@H](O)[C@@H](OC)C(=O)[C@H](C)C[C@H](C)/C=C/C=C/C=C/1C [Everolimus]
NFF_Activity ([1]; NFF_NS1 screen at 5 µg/mL): I (otherwise these were reported as inactive (I))
T.vaginalis_Absorbance_Rep1 [2]: 0.983
T.vaginalis_Absorbance_Rep2 [2]: 0.76
inhibition of growth at 1 µg/mL [3, 4]: 14.8%
inhibition of growth at 1 µg/mL [3, 5]: 10.1%

O=c1c(-c2ccc(O)cc2)coc2cc(O)cc(O)c12 [Genistein]
NFF_Activity ([1]; NFF_NS1 screen at 5 µg/mL): I (otherwise these were reported as inactive (I))
T.vaginalis_Absorbance_Rep1 [2]: 1.004
T.vaginalis_Absorbance_Rep2 [2]: 0.828
inhibition of growth at 1 µg/mL [3, 4]: 15.3%
inhibition of growth at 1 µg/mL [3, 5]: 12.4%

COc1cc(C)c(C(=O)Oc2cc(C)c(C(=O)O)c(O)c2)c(O)c1 [Evernic acid]
NFF_Activity ([1]; NFF_NS1 screen at 5 µg/mL): I (otherwise these were reported as inactive (I))
T.vaginalis_Absorbance_Rep1 [2]: 0.922
T.vaginalis_Absorbance_Rep2 [2]: 0.775
inhibition of growth at 1 µg/mL [3, 4]: 11.5%
inhibition of growth at 1 µg/mL [3, 5]: 11.2%

Cc1cc(O)c(C=O)c2c1C(=O)Oc1c(COC(=O)/C=C/C(=O)O)c(O)c(C(=O)O)c(C)c1O2 [Fumarprotocetraric acid]
NFF_Activity ([1]; NFF_NS1 screen at 5 µg/mL): I (otherwise these were reported as inactive (I))
T.vaginalis_Absorbance_Rep1 [2]: 0.953
T.vaginalis_Absorbance_Rep2 [2]: 0.839
inhibition of growth at 1 µg/mL [3, 4]: 13.1%
inhibition of growth at 1 µg/mL [3, 5]: 15.8%

C[C@H]1C(=O)N2c3ccccc3[C@@]3(O)C[C@@H]4C(=O)N[C@](C)(c5nc6ccccc6c(=O)n54)N1[C@@H]23 [Fumiquinazoline D]
NFF_Activity ([1]; NFF_NS1 screen at 5 µg/mL): I (otherwise these were reported as inactive (I))
T.vaginalis_Absorbance_Rep1 [2]: 0.964
T.vaginalis_Absorbance_Rep2 [2]: 0.84
inhibition of growth at 1 µg/mL [3, 4]: 13.7%
inhibition of growth at 1 µg/mL [3, 5]: 15.9%

C=Cc1cc(OC)c2c(c1)c(=O)oc1c2cc(OC)c2c(O)ccc([C@H]3O[C@H](C)[C@H](O)[C@H](O)[C@H]3O)c21 [Gilvocarcin V]
NFF_Activity ([1]; NFF_NS1 screen at 5 µg/mL): I (otherwise these were reported as inactive (I))
T.vaginalis_Absorbance_Rep1 [2]: 0.79
T.vaginalis_Absorbance_Rep2 [2]: 0.706
inhibition of growth at 1 µg/mL [3, 4]: 4.46%
inhibition of growth at 1 µg/mL [3, 5]: 4.55%

C=C(C)[C@@H]1NC(=O)[C@@H](NC)[C@@H](O)c2cc(Cl)c(O)c(c2)O[C@](C)(CC)[C@@H](C(=O)N2CC=C[C@H]2C(=O)N/C(C(=O)N/C(=C/C(=O)O)C(=O)O)=C(\C)CC)NC1=O [Phomopsin A]
NFF_Activity [1, 6]: I (otherwise these were reported as inactive (I))
inhibition of growth at 1 µg/mL [3, 4]: 11.7%
inhibition of growth at 1 µg/mL [3, 5]: 11%

CC1(C)C[C@]23[C@@H]4COC(=O)[C@H]2CC[C@H]1[C@@H]3CC4=O [Quadrone]
NFF_Activity [1, 6]: A (active (A) compounds having >25% inhibitory activity)
inhibition of growth at 1 µg/mL [3, 4]: 11.6%
inhibition of growth at 1 µg/mL [3, 5]: 11.6%

CCCCCC1=C/C(=C/c2[nH]c(-c3ccc[nH]3)cc2OC)N=C1C [Prodigiosin]
NFF_Activity [1, 6]: I (otherwise these were reported as inactive (I))
inhibition of growth at 1 µg/mL [3, 4]: 9.63%
inhibition of growth at 1 µg/mL [3, 5]: 1.73%

Cc1nnc2n1-c1sc(CCC(=O)N3CCOCC3)cc1C(c1ccccc1Cl)=NC2 [WEB 2086]
NFF_Activity [1, 7]: I (otherwise these were reported as inactive (I))
inhibition of growth at 1 µg/mL [3, 4]: 9.91%
inhibition of growth at 1 µg/mL [3, 5]: 13.4%

C/C(=C\c1csc(C)n1)[C@@H]1C[C@@H]2O[C@@H]2CCC[C@H](C)[C@H](O)[C@@H](C)C(=O)C(C)(C)[C@@H](O)CC(=O)O1 [Epothilone A]
NFF_Activity ([1]; NFF_NS1 screen at 5 µg/mL): I (otherwise these were reported as inactive (I))
T.vaginalis_Absorbance_Rep1 [2]: 2.11
T.vaginalis_Absorbance_Rep2 [2]: 1.991
inhibition of growth at 1 µg/mL [3, 4]: 71.4%
inhibition of growth at 1 µg/mL [3, 5]: 87%

CC(C)=CCC[C@H](C)[C@H]1CC[C@]2(C)C[C@H]3[C@H](C(=O)C[C@@]3(C)O)/C(C=O)=C\C[C@@H]12 [Ophiobolin C]
NFF_Activity [1, 6]: A (active (A) compounds having >25% inhibitory activity)
inhibition of growth at 1 µg/mL [3, 4]: 13.1%
inhibition of growth at 1 µg/mL [3, 5]: 12.7%

CN1C(=O)[C@]23C[C@@H]4C(C)(C)[C@@]5(C[C@@]41CN2CC[C@@]3(C)O)C(=O)Nc1c5ccc2c1OC=CC(C)(C)O2 [Paraherquamide A]
NFF_Activity [1, 6]: I (otherwise these were reported as inactive (I))
inhibition of growth at 1 µg/mL [3, 4]: 15.8%
inhibition of growth at 1 µg/mL [3, 5]: 15.5%

CC12C[C@@]34C=CC(=O)[C@@](C)(CCC(=O)Nc5c(O)ccc(C(=O)O)c5O)C3[C@H](CC1C4)O2 (stereo partly drawn) [Platensimycin]
NFF_Activity [1, 6]: I (otherwise these were reported as inactive (I))
inhibition of growth at 1 µg/mL [3, 4]: 11.3%
inhibition of growth at 1 µg/mL [3, 5]: 10%

CO[C@@]12[C@H](COC(N)=O)C3=C(C(=O)C(C)=C(N)C3=O)N1C[C@@H]1N[C@@H]12 [Mitomycin C]
NFF_Activity [1, 6]: I (otherwise these were reported as inactive (I))
inhibition of growth at 1 µg/mL [3, 4]: 11.5%
inhibition of growth at 1 µg/mL [3, 5]: 3.72%

C[C@@H]1C[C@H]2CC[C@H](O2)[C@H](C)C(=O)O[C@@H](C)C[C@@H]2CC[C@@H](O2)[C@@H](C)C(=O)O[C@H](C)C[C@H]2CC[C@H](O2)[C@H](C)C(=O)O[C@@H](C)C[C@@H]2CC[C@@H](O2)[C@@H](C)C(=O)O1 [Nonactin]
NFF_Activity [1]: I (key: active (A) compounds having >25% inhibitory activity; otherwise these were reported as inactive (I))
inhibition of growth at 1 µg/mL [3, 4]: 11.6%
inhibition of growth at 1 µg/mL [3, 5]: 12.1%

C[C@H]1CCCC(=O)CCCCCc2cc(O)cc(O)c2C(=O)O1 [Zearalanone]
NFF_Activity [1, 7]: I (otherwise these were reported as inactive (I))
inhibition of growth at 1 µg/mL [3, 4]: 10.1%
inhibition of growth at 1 µg/mL [3, 5]: 14.6%

C[C@H]1CCCC(=O)CCC/C=C/c2cc(O)cc(O)c2C(=O)O1 [Zearalenone]
NFF_Activity [1, 7]: I (otherwise these were reported as inactive (I))
inhibition of growth at 1 µg/mL [3, 4]: 7.39%
inhibition of growth at 1 µg/mL [3, 5]: 12%

Source: PMC7897990, “TriTOX: A novel Trichomonas vaginalis assay platform for high-throughput screening of compound libraries” (International Journal for Parasitology: Drugs and Drug …, 2021)
